Starred links: 1 amine or outer side, 2 acyl side, 3 side chain; linkers in the order of their positions; H or OH if unused. Positions of bridges follow the written chain, without caps; N, C: chain ends. Residues, ends and D or L forms follow the SMILES beside them. *: point of attachment. C18 diacid = O=C(O)CCCCCCCCCCCCCCCCC(=O)*; γGlu = O=C(O)[C@H](CCC(=O)[*:2])N[*:1]
Assay: Assay (I) efficacy testing on appetite (food intake), ad libitum fed rat model
Format: in vivo, Sprague Dawley (SD) rats
Settings: 3 nmol/kg
Procedure, shortened: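 Ad libitum fed SD rats (200-250 g) on a reversed light cycle, housed individually, received a single 0.01-3 mg/kg dose ip, po or sc just before lights-off. Individual food intake recorded hourly for 7 h, then at 24 h and sometimes 48 h, versus vehicle; Grubbs outliers excluded.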

In the case of `CC[C@H](C)[C@H](NC(=O)[C@@H]1CCCN1C(=O)CNC(=O)[C@H](Cc1ccccc1)NC(=O)[C@H](CC(N)=O)NC(=O)[C@H](CC(N)=O)NC(=O)[C@H](CO)NC(=O)[C@H](CO)NC(=O)[C@H](Cc1c[nH]cn1)NC(=O)[C@H](Cc1c[nH]cn1)NC(=O)[C@H](CC(C)C)NC(=O)[C@H](Cc1ccccc1)NC(=O)[C@H](CCC(=O)O)NC(=O)[C@H](C)NC(=O)[C@H](CC(C)C)NC(=O)[C@H](CCCNC(=N)N)NC(=O)[C@H](CCC(N)=O)NC(=O)[C@@H](NC(=O)[C@H](C)NC(=O)[C@@H]1CSSC[C@H](NC(=O)[C@H](CCCCN)NC(=O)[C@H](CCC(=O)O)NC(=O)CC[C@H](NC(=O)CCCCCCCCCCCCCCCCC(=O)O)C(=O)O)C(=O)N[C@@H](CC(N)=O)C(=O)N[C@@H]([C@@H](C)O)C(=O)N[C@@H](C)C(=O)N[C@@H]([C@@H](C)O)C(=O)N1)[C@@H](C)O)C(=O)N[C@@H](CC(C)C)C(=O)N1CCC[C@H]1C(=O)N1CCC[C@H]1C(=O)N[C@H](C(=O)N[C@@H](CC(N)=O)C(=O)N[C@H](C(=O)NCC(=O)N[C@@H](CO)C(=O)N[C@@H](CC(N)=O)C(=O)N[C@H](C(=O)N[C@@H](Cc1ccc(O)cc1)C(N)=O)[C@@H](C)O)C(C)C)[C@@H](C)O` [Example 42, N-alpha-[(S)-4-Carboxy-4-(17-carboxyheptadecanoylamino)butyryl]-Glu-[Glu14, His17]-pramlintide] ({C18 diacid-γGlu}-EKCNTATCATQRLAEFLHHSSNNFGPILPPTNVGSNTY-NH2; disulfide 3-8 (inferred); C-terminus assumed), the “Food intake reduction 0-24 h 3 nmol/kg (%)” value (0-24 h) is reported as 45% and the “Food intake reduction 24-48 h 3 nmol/kg (%)” value (24-48 h) is reported as 5%.

Source: patent US9029325B2, “Amylin analogues and pharmaceutical compositions thereof” (Novo Nordisk A/S, priority 2011, dated 2015)
